Columns and labels:
advanced solid tumors = assay: Tumor response by RECIST; format: in vivo, human
Protocol: Patients with measurable disease at baseline were evaluated for tumor response according to the Response Evaluation Criteria for Solid Tumors (RECIST). Radiographic studies (CT scan or MRI) for disease assessment were conducted at baseline and every 2 cycles (8 weeks) thereafter. The best overall response was reported. Disease control rate was defined as the percentage of patients with complete response (CR), partial response (PR), and stable disease (SD) for at least 8 weeks. The duration of overall response was defined as the period from the initial measurement of complete response (CR) or partial response (PR), whichever occurred first, to the first date of documented disease recurrence or progression. The same method and techniques of assessment were used to characterize each identified and reported lesion at baseline and at subsequent evaluations.

dogs = conditions: previously established; cited from earlier work

SMILES: N#CC1(c2ccc(NC(=O)c3cccnc3NCc3ccncc3)cc2)CCCC1 [apatinib]
- CR, evaluable patients (advanced solid tumors; 250 mg cohort): 0
- Disease control (%) CR+PR+SD (advanced solid tumors; 250 mg cohort): 66.7%
- Disease control CR+PR+SD, patients (advanced solid tumors; 250 mg cohort): 2
- PD, evaluable patients (advanced solid tumors; 250 mg cohort): 1
- PR, evaluable patients (advanced solid tumors; 250 mg cohort): 1
- CR, evaluable patients (advanced solid tumors; 500 mg cohort): 0
- Disease control (%) CR+PR+SD (advanced solid tumors; 500 mg cohort): 66.7%
- Disease control CR+PR+SD, patients (advanced solid tumors; 500 mg cohort): 6
- PD, evaluable patients (advanced solid tumors; 500 mg cohort): 3
- PR, evaluable patients (advanced solid tumors; 500 mg cohort): 2
- CR, evaluable patients (advanced solid tumors; 750 mg cohort): 0
- Disease control (%) CR+PR+SD (advanced solid tumors; 750 mg cohort): 100%
- Disease control CR+PR+SD, patients (advanced solid tumors; 750 mg cohort): 11
- PD, evaluable patients (advanced solid tumors; 750 mg cohort): 0
- PR, evaluable patients (advanced solid tumors; 750 mg cohort): 2
- CR, evaluable patients (advanced solid tumors; 850 mg cohort): 0
- Disease control (%) CR+PR+SD (advanced solid tumors; 850 mg cohort): 90.9%
- Disease control CR+PR+SD, patients (advanced solid tumors; 850 mg cohort): 10
- PD, evaluable patients (advanced solid tumors; 850 mg cohort): 1
- PR, evaluable patients (advanced solid tumors; 850 mg cohort): 2
- CR, evaluable patients (advanced solid tumors; 1000 mg cohort): 0
- Disease control (%) CR+PR+SD (advanced solid tumors; 1000 mg cohort): 66.7%
- Disease control CR+PR+SD, patients (advanced solid tumors; 1000 mg cohort): 2
- PD, evaluable patients (advanced solid tumors; 1000 mg cohort): 1
- PR, evaluable patients (advanced solid tumors; 1000 mg cohort): 0
- patients who achieved PR (advanced solid tumors; 22 assessable patients with gastric and colorectal cancer): 4
- Disease control rate (advanced solid tumors; 22 assessable patients with gastric and colorectal cancer (n = 18)): 81%
- CR, evaluable patients (advanced solid tumors; Total, n = 37): 0
- Disease control CR+PR+SD, patients (advanced solid tumors; Total, n = 37): 31
- PD, evaluable patients (advanced solid tumors; Total, n = 37): 6
- Disease control (%) CR+PR+SD, disease control rate (advanced solid tumors; Total, n = 37, at 8 weeks): 83.8%
- Duration of PR (advanced solid tumors; one GIST patient who failed imatinib): 24 months
- PR, % of evaluable patients (advanced solid tumors; thirty-seven evaluable patients): 18.9%
- maximum-tolerated dose (MTD) in dogs (dogs): above 30 mg/kg

— publication PMC2984425, “Safety and pharmacokinetics of novel selective vascular endothelial growth factor receptor-2 inhibitor YN968D1 in patients with advanced malignancies” (BMC Cancer, 2010)
